Source: paper PMC8674921 (ACS Omega, 2021)

Legend:
[1] = biological target: T1, h5-HT1A receptor (Ba/F3-5-HT1AR cells) (Homo sapiens, UniProt P08908); assay: Functional GPCR assay, intracellular calcium mobilization, h5-HT1A
T1 sequence (P08908 1-422): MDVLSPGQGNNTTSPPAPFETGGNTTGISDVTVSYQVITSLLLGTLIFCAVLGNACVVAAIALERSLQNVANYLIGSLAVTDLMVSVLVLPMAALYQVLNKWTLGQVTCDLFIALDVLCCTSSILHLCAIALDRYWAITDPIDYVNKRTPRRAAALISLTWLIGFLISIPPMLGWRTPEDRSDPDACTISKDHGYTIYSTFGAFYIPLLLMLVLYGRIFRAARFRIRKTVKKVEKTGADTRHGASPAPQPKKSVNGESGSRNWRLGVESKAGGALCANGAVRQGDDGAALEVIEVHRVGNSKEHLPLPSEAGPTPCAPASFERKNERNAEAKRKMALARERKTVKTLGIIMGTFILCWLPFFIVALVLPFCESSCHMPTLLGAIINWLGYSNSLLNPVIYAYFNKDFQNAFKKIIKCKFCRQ

[2] = biological target: human D3R (CHO-D3R membrane homogenates) (Homo sapiens, UniProt P35462); assay: Antagonist radioligand binding assay, D3 receptor; conditions: read-out: % inhibition of control-specific binding
Chain of human D3R (CHO-D3R membrane homogenates) (P35462 whole entry): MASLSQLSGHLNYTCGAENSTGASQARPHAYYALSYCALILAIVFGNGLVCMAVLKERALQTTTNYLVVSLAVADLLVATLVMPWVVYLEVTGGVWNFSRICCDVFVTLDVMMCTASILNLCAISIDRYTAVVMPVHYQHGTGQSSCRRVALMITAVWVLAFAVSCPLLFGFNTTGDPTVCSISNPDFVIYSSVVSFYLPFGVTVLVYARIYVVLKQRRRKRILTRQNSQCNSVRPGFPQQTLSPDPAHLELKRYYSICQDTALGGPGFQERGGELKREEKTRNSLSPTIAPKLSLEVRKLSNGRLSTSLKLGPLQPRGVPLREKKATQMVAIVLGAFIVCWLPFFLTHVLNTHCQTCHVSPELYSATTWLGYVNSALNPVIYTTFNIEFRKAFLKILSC

BChE = conditions: read-out: IC50 BChE; cited from earlier work
recombinant hMAO-A = biological target: T2, recombinant hMAO-A (Homo sapiens, UniProt P21397); assay: hMAO-A inhibitory assay; format: biochemical
T2 sequence (P21397 1-527): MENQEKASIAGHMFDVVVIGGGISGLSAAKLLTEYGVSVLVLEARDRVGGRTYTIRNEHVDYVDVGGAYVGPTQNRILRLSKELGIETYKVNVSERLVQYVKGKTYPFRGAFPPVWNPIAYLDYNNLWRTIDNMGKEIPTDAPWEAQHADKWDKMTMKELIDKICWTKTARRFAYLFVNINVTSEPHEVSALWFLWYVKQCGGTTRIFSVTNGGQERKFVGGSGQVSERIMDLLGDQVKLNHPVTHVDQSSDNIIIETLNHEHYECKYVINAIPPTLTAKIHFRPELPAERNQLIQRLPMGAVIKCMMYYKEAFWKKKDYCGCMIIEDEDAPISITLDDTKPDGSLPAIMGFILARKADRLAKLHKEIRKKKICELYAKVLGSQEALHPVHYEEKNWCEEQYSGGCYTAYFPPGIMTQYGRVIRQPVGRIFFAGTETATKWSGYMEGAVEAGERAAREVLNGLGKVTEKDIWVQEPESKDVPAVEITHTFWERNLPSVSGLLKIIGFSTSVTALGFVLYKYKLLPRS

[3] = biological target: hD1 receptor (CHO-D1R cells) (Homo sapiens, UniProt P21728); assay: Functional GPCR assay, cAMP level; format: cell-based
Chain of hD1 receptor (CHO-D1R cells) (P21728 whole entry): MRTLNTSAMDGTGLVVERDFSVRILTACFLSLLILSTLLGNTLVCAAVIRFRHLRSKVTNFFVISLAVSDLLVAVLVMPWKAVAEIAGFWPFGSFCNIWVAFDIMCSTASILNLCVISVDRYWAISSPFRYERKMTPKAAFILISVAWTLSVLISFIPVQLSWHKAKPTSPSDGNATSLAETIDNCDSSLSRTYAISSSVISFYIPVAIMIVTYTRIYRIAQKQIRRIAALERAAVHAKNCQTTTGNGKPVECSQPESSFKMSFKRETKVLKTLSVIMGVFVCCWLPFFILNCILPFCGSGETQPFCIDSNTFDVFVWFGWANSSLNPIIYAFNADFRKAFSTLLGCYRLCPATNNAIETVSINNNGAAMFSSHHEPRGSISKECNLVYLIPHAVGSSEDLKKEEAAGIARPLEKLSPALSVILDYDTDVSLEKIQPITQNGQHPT

[4] = biological target: hD2L receptor (CHO-D2LR cells) (Homo sapiens, UniProt P14416); assay: Functional GPCR assay, intracellular calcium flux, hD2L; format: cell-based
Chain of hD2L receptor (CHO-D2LR cells) (P14416 whole entry): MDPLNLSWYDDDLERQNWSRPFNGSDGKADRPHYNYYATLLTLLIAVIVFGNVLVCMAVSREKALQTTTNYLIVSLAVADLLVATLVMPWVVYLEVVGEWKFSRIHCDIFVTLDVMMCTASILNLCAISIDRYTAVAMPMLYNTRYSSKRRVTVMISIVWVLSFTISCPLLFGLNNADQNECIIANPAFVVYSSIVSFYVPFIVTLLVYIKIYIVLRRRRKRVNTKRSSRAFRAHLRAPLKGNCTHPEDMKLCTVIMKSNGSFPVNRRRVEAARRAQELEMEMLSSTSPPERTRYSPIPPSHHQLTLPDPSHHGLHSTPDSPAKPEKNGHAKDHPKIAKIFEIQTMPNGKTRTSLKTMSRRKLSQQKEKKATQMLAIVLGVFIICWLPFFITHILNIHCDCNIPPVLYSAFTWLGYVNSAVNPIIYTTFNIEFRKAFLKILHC

[5] = biological target: human D1R (recombinant CHO-D1R membrane homogenates) (Homo sapiens, UniProt P21728); assay: Antagonist radioligand binding assay, D1 receptor; conditions: 50 μM kurarinone, [3H]SCH-23390, mean of duplicate
Chain of human D1R (recombinant CHO-D1R membrane homogenates) (P21728 whole entry): as the sequence (P21728 whole entry) above

GABAA receptors = conditions: read-out: EC50 GABAA receptors modulating effect; cited from earlier work
BACE 1 = conditions: read-out: IC50 BACE 1; cited from earlier work
recombinant hMAO-B = biological target: T3, recombinant hMAO-B (Homo sapiens, UniProt P27338); assay: hMAO-B inhibitory assay; format: biochemical
T3 sequence (P27338 1-520): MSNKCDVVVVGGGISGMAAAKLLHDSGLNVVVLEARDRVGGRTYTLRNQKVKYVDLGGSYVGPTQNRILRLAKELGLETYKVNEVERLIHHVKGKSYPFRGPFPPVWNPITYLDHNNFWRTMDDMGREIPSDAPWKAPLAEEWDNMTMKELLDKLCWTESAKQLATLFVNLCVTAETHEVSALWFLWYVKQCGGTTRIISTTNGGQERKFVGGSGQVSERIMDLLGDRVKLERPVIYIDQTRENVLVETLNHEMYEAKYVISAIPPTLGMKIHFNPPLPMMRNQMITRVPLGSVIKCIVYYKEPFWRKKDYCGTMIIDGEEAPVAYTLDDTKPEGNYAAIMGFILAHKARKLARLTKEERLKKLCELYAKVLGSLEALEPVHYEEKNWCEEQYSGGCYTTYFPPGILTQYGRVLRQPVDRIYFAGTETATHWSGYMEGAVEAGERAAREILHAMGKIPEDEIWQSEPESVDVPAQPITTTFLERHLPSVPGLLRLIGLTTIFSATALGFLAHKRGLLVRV

[6] = biological target: T4, hD4 receptor (CHO-D4R cells) (Homo sapiens, UniProt P21917); assay: Functional GPCR assay, cAMP level; format: cell-based
T4 sequence (P21917 1-419): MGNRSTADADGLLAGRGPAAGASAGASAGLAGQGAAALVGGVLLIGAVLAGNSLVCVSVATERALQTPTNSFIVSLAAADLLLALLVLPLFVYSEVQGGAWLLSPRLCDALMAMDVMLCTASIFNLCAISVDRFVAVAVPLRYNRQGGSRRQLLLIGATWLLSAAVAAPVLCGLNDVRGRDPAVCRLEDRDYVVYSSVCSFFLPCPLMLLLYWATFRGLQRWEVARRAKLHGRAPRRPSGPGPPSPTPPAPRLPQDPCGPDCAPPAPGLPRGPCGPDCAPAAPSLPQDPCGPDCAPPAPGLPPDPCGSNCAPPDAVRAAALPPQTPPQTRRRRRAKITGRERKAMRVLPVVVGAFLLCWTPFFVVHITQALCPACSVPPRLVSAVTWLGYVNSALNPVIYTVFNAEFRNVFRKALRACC

[7] = biological target: human D2LR (transfected HEK-293 membrane homogenates) (Homo sapiens, UniProt P14416); assay: Antagonist radioligand binding assay, D2L receptor; conditions: 50 μM kurarinone, [3H]methylspiperone, mean of duplicate
Chain of human D2LR (transfected HEK-293 membrane homogenates) (P14416 whole entry): as the sequence (P14416 whole entry) above

[8] = biological target: human V1AR (recombinant CHO-V1AR membrane homogenates) (Homo sapiens, UniProt P37288); assay: Agonist radioligand binding assay, vasopressin V1A receptor; conditions: read-out: % inhibition of control-specific binding
Chain of human V1AR (recombinant CHO-V1AR membrane homogenates) (P37288 whole entry): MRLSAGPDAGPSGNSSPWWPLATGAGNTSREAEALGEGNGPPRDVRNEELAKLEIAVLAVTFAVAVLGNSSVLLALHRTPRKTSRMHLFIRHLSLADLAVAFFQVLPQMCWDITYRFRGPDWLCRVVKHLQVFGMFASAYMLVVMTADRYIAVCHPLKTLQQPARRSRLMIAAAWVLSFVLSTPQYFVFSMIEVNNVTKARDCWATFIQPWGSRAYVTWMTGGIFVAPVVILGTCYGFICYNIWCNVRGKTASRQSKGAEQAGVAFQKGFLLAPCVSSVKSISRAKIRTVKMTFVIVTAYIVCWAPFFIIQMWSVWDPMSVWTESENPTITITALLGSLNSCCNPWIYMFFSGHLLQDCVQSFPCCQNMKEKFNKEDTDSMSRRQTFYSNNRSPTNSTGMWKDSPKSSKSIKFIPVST

AChE = conditions: read-out: IC50 AChE; cited from earlier work
[9] = biological target: T5, human D4R (CHO-D4R membrane homogenates) (Homo sapiens, UniProt P21917); assay: Antagonist radioligand binding assay, D4 receptor; conditions: 50 μM kurarinone, [3H]methylspiperone, mean of duplicate
T5 sequence (P21917 1-419): T4 sequence (P21917 1-419)

hMAO-A = conditions: read-out: IC50 hMAO-A; selective hMAO-A inhibition; cited from earlier work
[10] = read-out: % inhibition of control agonist effect

For C=C(C)[C@H](CC=C(C)C)Cc1c(O)cc(OC)c2c1O[C@H](c1ccc(O)cc1O)CC2=O [kurarinone], the “% stimulation of control agonist effect” value ([1]; 100 μM, h5-HT1A, agonist mode, control 0.625 μM 5-HT) was 17.8 ± 1.13%, the inhibition at 100 µM [1, 10] was 30.3% and the inhibition at 50 µM [2] was 49.2%. For the same molecule, the IC50 (BChE) was 5.29 ± 0.67 µM, the IC50 (recombinant hMAO-A) was 186 ± 6.17 µM and the Ki (recombinant hMAO-A; Ki hMAO-A, Dixon and secondary plots) was 65.1 ± 3.53 µM. The “Inhibition type hMAO-A” value (recombinant hMAO-A; Lineweaver-Burk plots) was “competitive”, the “% stimulation of control agonist effect” value ([3]; 100 μM, hD1, agonist mode, control 10 μM DA) was 0.25 ± 0.64% and the inhibition at 100 µM [3, 10] was 98.5%. The “agonist response in antagonist mode assay” value ([4]; 100 μM, D2LR, antagonist mode) was “at least 25%”, the “% stimulation of control agonist effect” value ([4]; 100 μM, hD2L, agonist mode, control 10 μM DA) was 113 ± 28.9% and the “agonist or agonist-like effect flag in antagonist mode” value ([4]; 100 μM, hD2L, antagonist mode) was “AGO (the test compound induced at least 25% agonist or agonist-like effect at this concentration)”. For the same molecule, the EC50 ([4]; EC50 (50% of control agonist effect), hD2L, agonist mode, mean ± S.D., duplicate) was 22.4 ± 3.46 µM, the inhibition at 100 µM [4, 10] was 43.8% and the “% inhibition of control-specific binding” value [5] was > 70%. The “% inhibition of control-specific binding” value ([5]; listed as Kurarinone) was 99.1%, the EC50 (GABAA receptors) was 8.1 ± 1.4 µM and the IC50 (BACE 1) was 24.5 ± 1.73 µM. For the same molecule, the IC50 (recombinant hMAO-B) was 198 ± 12.7 µM, the “Inhibition type hMAO-B” value (recombinant hMAO-B; Lineweaver-Burk plots) was “mixed” and the EC50 [6] was 71.3 ± 4.94 µM. The “% stimulation of control agonist effect” value ([6]; 100 μM, hD4, agonist mode, control 1000 nm DA) was 71.7 ± 6.36%, the inhibition at 100 µM [6, 10] was -4.2% and the “% inhibition of control-specific binding” value [7] was 78.5%. The inhibition at 50 µM [8] was 47.6%, the IC50 (AChE) was 74.3 ± 7.85 µM and the “% inhibition of control-specific binding” value [9] was 71.1%.
In the case of C=C(C)[C@H](CC=C(C)C)Cc1c(O)cc(O)c2c1O[C@H](c1ccc(O)cc1O)CC2=O [sophoraflavone G], the IC50 (hMAO-A) is given as 38.8 ± 1.1 µM.
